Experimental data reported in patent US10538532B2, “Hepatitis B antiviral agents” (ENANTA PHARMACEUTICALS, INC., priority 2016, dated 2020).
Where two headings read alike, the source gives them in different places.

Tested on: HBV
Assay: HepAD38 antiviral assay: reduction of viral product accumulation (virion DNA by qPCR, HBsAg or HBeAg by ELISA)
Type: cell-based, hepatitis B virus
Conditions: Hepatitis B virus, HePAD38, 120 h, read-out: HepAD38 EC50
Method: Methods: HepAD38 cells are maintained as previously reported (Ladner et al, Antimicrob. Agents Chemother. 1997, […], 1715). Briefly, cells are passaged upon attaining confluency in DMEM/F12 media in the presence of 10% FBS, Penn/Strep, 250 μg/mL G418, and 1 ug/ml tetracycline. Novel compounds are screened by first washing cells three times with PBS to remove tetracycline, and plating in 96 well plates at 35,000 cells/well. Compounds dissolved in DMSO are then diluted 1:200 into wells containing cells. Five days after compound addition, material is harvested for analysis. For an extended 8 day analysis, cells are plated and treated as described above, but media and compound are refreshed on d2 and d5 post initial treatment.
On harvest day, virion DNA is obtained by lysing with Sidestep Lysis and Stabilization Buffer and then quantified via quantitative real time PCR. Commercially available ELISA kits are used to quantitate the viral proteins HBsAg (Alpco) or HbeAg (US Biological) by following the manufacturer's recommended protocol after diluting samples to match the linear range of their respective assays. Irrespective of readout, compound concentrations that reduce viral product accumulation in the cell lysates or supernatants by 50% relative to no drug controls (EC50) are reported; EC50 ranges are as follows: A<0.1 μM; B 0.1-0.4 μM; C>0.4 μM.

[1] = HepAD38 cells, five days after compound addition, concentration reducing viral product accumulation by 50% relative to no drug controls

CCNC(=O)OC[C@]1(O)CC2CC[C@@H](C1)[C@H]2S(=O)(=O)c1cc(C(=O)Nc2cc(F)c(F)c(F)c2)ccc1Cl [Example 135]
EC50 [1]: 100 to 400 nM

CC(O)[C@]1(O)CC2CC[C@@H](C1)[C@H]2S(=O)(=O)c1cc(C(=O)Nc2cc(F)c(F)c(F)c2)ccc1Cl (some centres unmarked) [Example 136]
EC50 [1]: < 100 nM

O=C(Nc1cc(F)c(F)c(F)c1)c1ccc(Cl)c(S(=O)(=O)[C@@H]2C3CC[C@H]2C[C@](O)(CO)C3)c1 [Example 137]
EC50 [1]: 100 to 400 nM

O=C(Nc1cc(F)c(F)c(F)c1)c1ccc(Cl)c([S+]([O-])[C@H]2C3CC[C@H]2C[C@](O)(CO)C3)c1 (some centres unmarked) [Example 138]
EC50 [1]: > 400 nM

O=C(Nc1cc(F)c(F)c(F)c1)c1ccc(Cl)c(S(=O)(=O)[C@H]2C3CC[C@H]2C[C@]2(CO2)C3)c1 [Example 139]
EC50 [1]: < 100 nM

CC(=O)OCC1=CC2CCC(C1)[C@@H]2S(=O)(=O)c1cc(C(=O)Nc2cc(F)c(F)c(F)c2)ccc1Cl (some centres unmarked) [Example 140]
EC50 [1]: 100 to 400 nM

O=C(Nc1cc(F)c(F)c(F)c1)c1ccc(Cl)c(S(=O)(=O)[C@@H]2C3C=C(CO)CC2CC3)c1 (some centres unmarked) [Example 141]
EC50 [1]: 100 to 400 nM

CS(=O)(=O)OC[C@]1(O)CC2CC[C@@H](C1)[C@H]2S(=O)(=O)c1cc(C(=O)Nc2cc(F)c(F)c(F)c2)ccc1Cl [Example 142]
EC50 [1]: < 100 nM

CN(C)c1ccc(C(=O)Nc2cc(F)c(F)c(F)c2)cc1S(=O)(=O)[C@H]1C2CC[C@H]1C[C@]1(CO1)C2 [Example 143]
EC50 [1]: > 400 nM

CN(C)c1ccc(C(=O)Nc2cc(F)c(F)c(F)c2)cc1S(=O)(=O)[C@H]1C2CC[C@H]1C[C@](O)(COS(C)(=O)=O)C2 [Example 144]
EC50 [1]: > 400 nM

[N-]=[N+]=Nc1ccc(C(=O)Nc2cc(F)c(F)c(F)c2)cc1S(=O)(=O)[C@H]1C2CC[C@H]1C[C@]1(CO1)C2 [Example 145]
EC50 [1]: 100 to 400 nM

O=C(Nc1cc(F)c(F)c(F)c1)c1ccc(Cl)c(S(=O)(=O)[C@H]2C3CC[C@H]2C(O)C(=O)C3)c1 (some centres unmarked) [Example 146]
EC50 [1]: < 100 nM

CN(C)c1ccc(C(=O)Nc2cc(F)c(F)c(F)c2)cc1S(=O)(=O)[C@H]1C2CC[C@H]1C[C@](O)(CO)C2 [Example 147]
EC50 [1]: > 400 nM

[N-]=[N+]=Nc1ccc(C(=O)Nc2cc(F)c(F)c(F)c2)cc1S(=O)(=O)[C@H]1C2CC[C@H]1C[C@](O)(CO)C2 [Example 148]
EC50 [1]: > 400 nM

O=C(Nc1cc(F)c(F)c(F)c1)c1ccc(Cl)c(S(=O)(=O)[C@H]2C3CC[C@H]2C[C@](O)(C(O)c2ccccc2)C3)c1 (some centres unmarked) [Example 149]
EC50 [1]: < 100 nM

CC(C)(O)[C@]1(O)CC2CC[C@@H](C1)[C@H]2S(=O)(=O)c1cc(C(=O)Nc2cc(F)c(F)c(F)c2)ccc1Cl [Example 151]
EC50 [1]: < 100 nM

CO[C@]1(CO)CC2CC[C@@H](C1)[C@H]2S(=O)(=O)c1cc(C(=O)Nc2cc(F)c(F)c(F)c2)ccc1Cl [Example 152]
EC50 [1]: < 100 nM

COC(=O)[C@]1(O)CC2CC[C@@H](C1)[C@H]2S(=O)(=O)c1cc(C(=O)Nc2cc(F)c(F)c(F)c2)ccc1Cl [Example 153]
EC50 [1]: > 400 nM

O=C1OC[C@@]2(CC3CC[C@@H](C2)[C@H]3S(=O)(=O)c2cc(C(=O)Nc3cc(F)c(F)c(F)c3)ccc2Cl)O1 [Example 155]
EC50 [1]: < 100 nM

O=C(Nc1cc(F)c(F)c(F)c1)c1ccc(Cl)c(S(=O)(=O)[C@H]2C3CC[C@H]2C(O)[C@](O)(CO)C3)c1 (some centres unmarked) [Example 156]
EC50 [1]: < 100 nM

O=C(Nc1cc(F)c(F)c(F)c1)c1ccc(Cl)c(S(=O)(=O)[C@H]2C3CC[C@H]2C[C@](O)(/C=N/Oc2ccccc2)C3)c1 [Example 157]
EC50 [1]: < 100 nM

O=C(Nc1cc(F)c(F)c(F)c1)c1ccc(Cl)c(S(=O)(=O)[C@H]2C3CC[C@H]2C[C@](O)(/C=N/O)C3)c1 [Example 158]
EC50 [1]: < 100 nM

[2H]C1([2H])C2C[C@@](O)(CO)C[C@H](C1([2H])[2H])[C@@]2([2H])S(=O)(=O)c1cc(C(=O)Nc2cc(F)c(F)c(F)c2)ccc1Cl [Example 159]
EC50 [1]: < 100 nM

C[Si](C)(C)C#C[C@@]1(O)CC2CC[C@@H](C1)[C@H]2S(=O)(=O)c1cc(C(=O)Nc2cc(F)c(F)c(F)c2)ccc1Cl [Example 160]
EC50: 100 to 400 nM

C#C[C@@]1(O)CC2CC[C@@H](C1)[C@H]2S(=O)(=O)c1cc(C(=O)Nc2cc(F)c(F)c(F)c2)ccc1Cl [Example 161]
EC50 [1]: < 100 nM

C#C[C@]1(O)CC2CC[C@@H](C1)[C@H]2S(=O)(=O)c1cc(C(=O)Nc2cc(F)c(F)c(F)c2)ccc1Cl [Example 162]
EC50 [1]: < 100 nM

O=C(Nc1cc(F)c(F)c(F)c1)c1ccc(Cl)c(S(=O)(=O)[C@H]2C3CC[C@H]2[C@@H](CO)C(=O)C3)c1 [Example 163]
EC50 [1]: 100 to 400 nM

O=C(Nc1cc(F)c(F)c(F)c1)c1ccc(Cl)c(S(=O)(=O)[C@H]2C3CC[C@H]2C[C@@](O)(CO)C3)c1 [Example 164]
EC50 [1]: < 100 nM

O=C(Nc1cc(F)c(F)c(F)c1)c1ccc(Cl)c(S(=O)(=O)CCCCO[C@H]2C3CC[C@H]2C[C@](O)(CO)C3)c1 [Example 165]
EC50 [1]: > 400 nM

O=C(Nc1cc(F)c(F)c(F)c1)c1ccc(Cl)c(S(=O)(=O)C(CO)CC2CCOCC2)c1 (centres unmarked) [Example 166]
EC50 [1]: 100 to 400 nM

O=C(Nc1cc(F)c(F)c(F)c1)c1ccc(Cl)c(S(=O)(=O)[C@H]2C3CC[C@H]2C[C@](O)(C#Cc2ccccc2)C3)c1 [Example 167]
EC50 [1]: 100 to 400 nM

O=C(Nc1cc(F)c(F)c(F)c1)c1ccc(Cl)c(S(=O)(=O)[C@H]2C3CC[C@H]2C[C@@](O)(C#Cc2ccccc2)C3)c1 [Example 168]
EC50 [1]: > 400 nM

O=C(Nc1cc(F)c(F)c(F)c1)c1ccc(Cl)c(S(=O)(=O)[C@H]2C3CC[C@H]2C[C@](O)(C#Cc2ccncc2)C3)c1 [Example 169]
EC50 [1]: < 100 nM

O=C(Nc1cc(F)c(F)c(F)c1)c1ccc(Cl)c(S(=O)(=O)[C@H]2C3CC[C@H]2C[C@@](O)(C#Cc2ccncc2)C3)c1 [Example 170]
EC50 [1]: > 400 nM

O=C(Nc1cc(F)c(F)c(F)c1)c1ccc(Cl)c(S(=O)(=O)[C@H]2C3CC[C@H]2C[C@](O)(C#Cc2ccccn2)C3)c1 [Example 171]
EC50 [1]: < 100 nM

O=C(Nc1cc(F)c(F)c(F)c1)c1ccc(Cl)c(S(=O)(=O)[C@H]2C3CC[C@H]2C[C@@](O)(C#Cc2ccccn2)C3)c1 [Example 172]
EC50 [1]: 100 to 400 nM

C=CC[C@]1(O)CC2CCC(C1)[C@@H]2S(=O)(=O)c1cc(C(=O)Nc2cc(F)c(F)c(F)c2)ccc1Cl [Example 173]
EC50 [1]: < 100 nM

O=C(Nc1cc(F)c(F)c(F)c1)c1ccc(Cl)c(S[C@H]2C3CC4C[C@H](C3)C[C@@H]2C4)c1 [Example 174]
EC50 [1]: > 400 nM

O=C(Nc1cc(F)c(F)c(F)c1)c1ccc(Cl)c([S+]([O-])[C@H]2C3C[C@@H]4C[C@H](C3)C[C@@H]2C4)c1 (some centres unmarked) [Example 175]
EC50 [1]: > 400 nM

O=C(Nc1cc(F)c(F)c(F)c1)c1ccc(Cl)c(S(=O)(=O)[C@H]2C3C[C@@H]4C[C@H](C3)C[C@@H]2C4)c1 [Example 176]
EC50 [1]: > 400 nM

O=C(Nc1cc(F)c(F)c(F)c1)c1ccc(Cl)c(S(=O)(=O)C[C@H]2C3CC[C@H]2C[C@](O)(CO)C3)c1 [Example 177]
EC50 [1]: < 100 nM

O=C(Nc1cc(F)c(F)c(F)c1)c1ccc(Cl)c(S(=O)(=O)C[C@@H]2C3CC[C@H]2C[C@](O)(CO)C3)c1 [Example 178]
EC50 [1]: < 100 nM

O=C1CC2CC[C@@H](C1)[C@@H]2CS(=O)(=O)c1cc(C(=O)Nc2cc(F)c(F)c(F)c2)ccc1Cl [Example 179]
EC50 [1]: < 100 nM

O=C1CC2CC[C@@H](C1)[C@H]2CS(=O)(=O)c1cc(C(=O)Nc2cc(F)c(F)c(F)c2)ccc1Cl [Example 180]
EC50 [1]: < 100 nM

O=C(Nc1cc(F)c(F)c(F)c1)c1ccc(Cl)c(S(=O)(=O)C[C@@H]2C3CC[C@H]2C[C@@H](O)C3)c1 [Example 181]
EC50 [1]: < 100 nM

O=C(Nc1cc(F)c(F)c(F)c1)c1ccc(Cl)c(S(=O)(=O)[C@H]2CC3CCC(C2)[C@H]3O)c1 [Example 183]
EC50 [1]: 100 to 400 nM

O=C(Nc1cc(F)c(F)c(F)c1)c1ccc(Cl)c(S(=O)(=O)[C@H]2CC3CCC(C2)[C@H]3OC2CCCO2)c1 (some centres unmarked) [Example 184]
EC50 [1]: > 400 nM

CC(=O)OC[C@]1(OC(C)=O)CC2CC[C@@H](C1)[C@H]2S(=O)(=O)c1cc(C(=O)Nc2cc(F)c(F)c(F)c2)ccc1Cl [Example 185]
EC50 [1]: < 100 nM

CS(=O)(=O)NC[C@@]1(O)CC2CC[C@@H](C1)[C@H]2S(=O)(=O)c1cc(C(=O)Nc2cc(F)c(F)c(F)c2)ccc1Cl [Example 186]
EC50 [1]: 100 to 400 nM

O=C(Nc1cc(F)c(F)c(F)c1)c1ccc(Cl)c(S(=O)(=O)[C@H]2C3CC[C@H]2C[C@](O)(COCc2cccnc2)C3)c1 [Example 187]
EC50 [1]: < 100 nM

CC(C)(C)[Si](C)(C)O[C@H]1C2CCC1C[C@@H](Sc1cc(C(=O)Nc3cc(F)c(F)c(F)c3)ccc1Cl)C2 [Example 189]
EC50: 100 to 400 nM

O=C(Nc1cc(F)c(F)c(F)c1)c1ccc(Cl)c(S[C@H]2CC3CCC(C2)[C@@H]3O)c1 [Example 190]
EC50 [1]: > 400 nM

O=C(Nc1cc(F)c(F)c(F)c1)c1ccc(Cl)c(S[C@H]2CC3CCC(C2)[C@H]3O)c1 [Example 191]
EC50 [1]: > 400 nM

O=C(Nc1cc(F)c(F)c(F)c1)c1ccc(Cl)c(S(=O)(=O)[C@H]2CC3CCC(C2)[C@@H]3O)c1 [Example 192]
EC50 [1]: 100 to 400 nM

O=C(Nc1cc(F)c(F)c(F)c1)c1ccc(Cl)c(S(=O)(=O)C[C@@H]2C3CC[C@H]2C[C@H](O)C3)c1 [Example 193]
EC50 [1]: 100 to 400 nM

O=C(Nc1cc(F)c(F)c(F)c1)c1ccc(Cl)c(S(=O)(=O)C[C@H]2C3CCC2C[C@H](O)C3)c1 [Example 194]
EC50 [1]: < 100 nM
